ChEMBL document CHEMBL6153141, “Design, Synthesis, and Mechanism Study of Novel BMX Inhibitors Based on the Core of 1,3,5-Triazin-2-Amine for the Treatment of Gastric Carcinoma” (J Med Chem, 2025)
pIC50: −log10 of the molar value. Activity calls are given as the source filed them. No cut-off for these calls is given here.

Key:
[1] = system: DU-145; assay: cells; settings: Homo sapiens, DU-145, 72 h
Description: Anticancer activity against human DU-145 cells assessed as inhibition of cell proliferation incubated for 72 hrs by MTT assay

[2] = Cytotoxicity against human GES1 cells assessed as inhibition of cell proliferation incubated for 72 hrs by MTT assay; type: toxicity, cell-based
[3] = system: MGC-803; assay: Induction of autophagy in human MGC-803 cells assessed as decrease in p62 protein expression incubated for 48 hrs by Western blot analysis; type: functional, cell-based; settings: dose 10-20 µM
[4] = system: MGC-803; assay: Induction of apoptosis in human MGC-803 cells assessed as increase in apoptotic cells at 10 to 20 uM incubated for 48 hrs by Annexin V-FITC/PI staining based flow cytometric analysis; type: functional, cell-based; settings: dose 10-20 µM
[5] = molecular target: Epidermal growth factor receptor (Homo sapiens, UniProt P00533, T790M); assay: Inhibition of EGFR T790M (unknown origin) in presence of ATP at Km concentration
[6] = Toxicity in female BALB/c nude mouse model xenografted with human HGC-27 cells assessed as effect on spleen at 30 mg/kg, ip administered for 21 days by H and E staining based analysis; type: organism-based; settings: in vivo, 504 h, time 21 day
[7] = system: HGC-27; assay: Antiproliferative activity against human HGC-27 cells assessed as reduction in number of EdU-positive cells incubated for 48 hrs by confocal laser scanning microscopic analysis; type: functional, cell-based; settings: dose 5-15 µM
[8] = system: HGC-27; assay: Effect on mTOR expression in human HGC-27 cells at 5 to 15 uM incubated for 48 hrs by Western blot analysis; type: functional, cell-based; settings: dose 5-15 µM
[9] = system: MGC-803; assay: Induction of apoptosis in human MGC-803 cells assessed as increase in cleaved caspase 3 level incubated for 48 hrs by Western blot analysis; type: functional, cell-based; settings: dose 10-20 µM
[10] = Oral bioavailability in Sprague-Dawley rat at 5 mg/kg measured after 24 hrs by LC-MS/MS analysis; type: ADME, organism-based; settings: in vivo
[11] = molecular target: Tyrosine-protein kinase ITK/TSK (Homo sapiens, UniProt Q08881); assay: Inhibition of ITK (unknown origin) in presence of ATP at Km concentration
[12] = system: NCI-H1975; assay: cells; settings: Homo sapiens, NCI-H1975, 72 h
Description: Anticancer activity against human NCI-H1975 cells assessed as inhibition of cell proliferation incubated for 72 hrs by MTT assay

[13] = system: CWR22R; assay: cells; settings: Homo sapiens, 22Rv1, 72 h
Description: Anticancer activity against human 22Rv1 cells assessed as inhibition of cell proliferation incubated for 72 hrs by MTT assay

[14] = system: HGC-27; assay: Inhibition of colony formation in human HGC-27 cells assessed as decrease in clonogenic ability at 2.5 to 10 uM incubated for 48 hrs by crystal violet staining based analysis; type: functional, cell-based; settings: dose 2.5-10 µM
[15] = system: MGC-803; assay: Inhibition of AKT-mTOR signaling in human […] cells assessed as decrease in phosphorylated AKT expression at 10 to 20 uM incubated for 48 hrs by Western blot analysis; type: cell-based; settings: dose 10-20 µM
[16] = system: HONE1 cell line; assay: Anticancer activity against human HONE1 cell line assessed as inhibition of cell proliferation incubated for 72 hrs by MTT assay; type: functional, cell-based; settings: HONE1, 72 h
[17] = system: MGC-803; assay: Antiproliferative activity against human MGC-803 cells assessed as inhibition of cell viability incubated for 24 to 72 hrs by MTT assay; type: functional, cell-based; settings: dose <= 50.0 µM, time 24-72 hrs
[18] = system: MGC-803; assay: Antiproliferative activity against human MGC-803 cells assessed as inhibition of cell viability upto 50 uM by MTT assay; type: functional, cell-based; settings: time 24-72 hrs
[19] = system: MGC-803; assay: Cell cycle arrest in human MGC-803 cells assessed as accumulation of cells at G1 phase at 10 to 20 uM incubated for 48 hrs by flow cytometric analysis; type: functional, cell-based; settings: dose 10-20 µM
[20] = system: MGC-803; assay: Induction of apoptosis in LC3B knockout human MGC-803 cells assessed as increase in cleaved caspase 9 level at 20 uM by Western blot analysis; type: functional, cell-based
[21] = system: PC-9; assay: cells; settings: Homo sapiens, PC-9, 72 h
Description: Anticancer activity against human PC-9 cells assessed as inhibition of cell proliferation incubated for 72 hrs by MTT assay

[22] = system: HGC-27; assay: Induction of apoptosis in LC3B knockout human HGC-27 cells assessed as increase in cleaved caspase 9 level at 15 uM by Western blot analysis; type: functional, cell-based
[23] = Toxicity in female BALB/c nude mouse model xenografted with human HGC-27 cells assessed as effect on heart at 30 mg/kg, ip administered for 21 days by H and E staining based analysis; type: organism-based; settings: in vivo, 504 h, time 21 day
[24] = Toxicity in female BALB/c nude mouse model xenografted with human HGC-27 cells assessed as effect on lung at 30 mg/kg, ip administered for 21 days by H and E staining based analysis; type: organism-based; settings: in vivo, 504 h, time 21 day
[25] = system: MGC-803; assay: Inhibition of colony formation in human MGC-803 cells assessed as decrease in clonogenic ability at 2.5 to 10 uM incubated for 48 hrs by crystal violet staining based analysis; type: functional, cell-based; settings: dose 2.5-10 µM
[26] = system: PC-3; assay: cells; settings: Homo sapiens, PC-3, 72 h
Description: Anticancer activity against human PC-3 cells assessed as inhibition of cell proliferation incubated for 72 hrs by MTT assay

[27] = system: HGC-27; assay: Anticancer activity against human HGC-27 cells assessed as inhibition of cell proliferation incubated for 72 hrs by MTT assay; type: functional, cell-based; settings: HGC-27, 72 h
[28] = system: HGC-27; assay: Induction of autophagy in human HGC-27 cells assessed as decrease in p62 protein expression incubated for 48 hrs by Western blot analysis; type: functional, cell-based; settings: dose 5-15 µM
[29] = system: MGC-803; assay: Downregulation of BMX protein expression in human MGC-803 cells incubated for 48 hrs by Western blot analysis; type: functional, cell-based; settings: dose 10-20 µM
[30] = molecular target: Receptor tyrosine-protein kinase erbB-4 (Homo sapiens, UniProt Q15303); assay: Inhibition of HER4 (unknown origin) in presence of ATP at Km concentration
[31] = system: MGC-803; assay: cells; settings: Homo sapiens, MGC-803, 48 h
Description: Antiproliferative activity against human MGC-803 cells assessed as inhibition of cell viability incubated for 48 hrs by MTT assay

[32] = Cytotoxicity against H9c2 cells assessed as inhibition of cell proliferation incubated for 72 hrs by MTT assay; type: toxicity, cell-based; settings: rat
[33] = molecular target: Cytochrome P450 2C19 (Homo sapiens, UniProt P33261); assay: Inhibition of CYP2C19 in human liver microsomes using omeprazole as substrate preincubated for 5 mins followed by NADPH addition and measured after 10 mins by LC-MS/MS analysis; type: ADME, Microsome
[34] = system: HCC827; assay: cells; settings: Homo sapiens, HCC827, 72 h
Description: Anticancer activity against human HCC827 cells assessed as inhibition of cell proliferation incubated for 72 hrs by MTT assay

[35] = system: MGC-803; assay: Induction of apoptosis in human MGC-803 cells assessed as increase in cleaved caspase 9 level incubated for 48 hrs by Western blot analysis; type: functional, cell-based; settings: dose 10-20 µM
[36] = system: MGC-803; assay: Induction of apoptosis in human MGC-803 cells assessed as increase in cleaved PARP level incubated for 48 hrs by Western blot analysis; type: functional, cell-based; settings: dose 10-20 µM
[37] = system: MGC-803; assay: Induction of autophagy in human MGC-803 cells assessed as increase in LC3B protein expression incubated for 48 hrs by Western blot analysis; type: functional, cell-based; settings: dose 10-20 µM
[38] = system: HGC-27; assay: Inhibition of AKT-mTOR signaling in human HGC-27 cells assessed as decrease in phosphorylated AKT expression at 5 to 15 uM incubated for 48 hrs by Western blot analysis; type: cell-based; settings: dose 5-15 µM
[39] = Cytotoxicity against human L02 cells assessed as inhibition of cell proliferation incubated for 72 hrs by MTT assay; type: toxicity, cell-based
[40] = molecular target: Tyrosine-protein kinase JAK3 (Homo sapiens, UniProt P52333); assay: Inhibition of JAK3 (unknown origin) in presence of ATP at Km concentration
[41] = system: 4T1; assay: Anticancer activity against mouse 4T1 cells assessed as inhibition of cell proliferation incubated for 72 hrs by MTT assay; type: functional, cell-based; settings: 4T1, 72 h

Tyrosine-protein kinase JAK3, sequence (P52333 whole entry): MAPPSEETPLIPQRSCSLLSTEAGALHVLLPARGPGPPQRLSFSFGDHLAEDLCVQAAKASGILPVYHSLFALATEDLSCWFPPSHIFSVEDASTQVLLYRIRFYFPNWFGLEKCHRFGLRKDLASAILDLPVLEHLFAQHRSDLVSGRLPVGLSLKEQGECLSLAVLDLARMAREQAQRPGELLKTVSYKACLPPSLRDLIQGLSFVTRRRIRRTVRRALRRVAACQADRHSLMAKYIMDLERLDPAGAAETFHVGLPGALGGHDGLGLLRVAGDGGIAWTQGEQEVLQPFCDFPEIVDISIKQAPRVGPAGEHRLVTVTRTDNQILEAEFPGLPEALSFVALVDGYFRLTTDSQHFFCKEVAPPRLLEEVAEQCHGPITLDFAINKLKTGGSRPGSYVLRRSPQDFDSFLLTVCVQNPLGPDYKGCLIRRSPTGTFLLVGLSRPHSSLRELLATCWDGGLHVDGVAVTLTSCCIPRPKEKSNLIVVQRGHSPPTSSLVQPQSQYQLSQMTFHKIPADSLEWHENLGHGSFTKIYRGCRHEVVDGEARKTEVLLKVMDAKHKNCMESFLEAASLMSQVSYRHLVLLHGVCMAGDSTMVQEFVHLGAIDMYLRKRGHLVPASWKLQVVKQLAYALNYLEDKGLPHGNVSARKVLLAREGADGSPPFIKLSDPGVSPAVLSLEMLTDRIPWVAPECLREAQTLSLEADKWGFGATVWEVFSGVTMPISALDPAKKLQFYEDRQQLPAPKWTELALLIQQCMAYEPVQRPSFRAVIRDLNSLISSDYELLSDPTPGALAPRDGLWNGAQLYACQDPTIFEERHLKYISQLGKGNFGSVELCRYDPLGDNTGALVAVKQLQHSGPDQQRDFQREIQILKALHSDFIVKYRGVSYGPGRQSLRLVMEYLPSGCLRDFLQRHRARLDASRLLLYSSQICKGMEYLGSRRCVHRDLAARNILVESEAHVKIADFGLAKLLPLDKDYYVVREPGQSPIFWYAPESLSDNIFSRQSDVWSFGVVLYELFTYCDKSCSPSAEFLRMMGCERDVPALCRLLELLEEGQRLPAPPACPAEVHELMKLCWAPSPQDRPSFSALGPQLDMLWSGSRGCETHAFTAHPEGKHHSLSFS
Cytochrome P450 2C19, sequence (P33261 whole entry): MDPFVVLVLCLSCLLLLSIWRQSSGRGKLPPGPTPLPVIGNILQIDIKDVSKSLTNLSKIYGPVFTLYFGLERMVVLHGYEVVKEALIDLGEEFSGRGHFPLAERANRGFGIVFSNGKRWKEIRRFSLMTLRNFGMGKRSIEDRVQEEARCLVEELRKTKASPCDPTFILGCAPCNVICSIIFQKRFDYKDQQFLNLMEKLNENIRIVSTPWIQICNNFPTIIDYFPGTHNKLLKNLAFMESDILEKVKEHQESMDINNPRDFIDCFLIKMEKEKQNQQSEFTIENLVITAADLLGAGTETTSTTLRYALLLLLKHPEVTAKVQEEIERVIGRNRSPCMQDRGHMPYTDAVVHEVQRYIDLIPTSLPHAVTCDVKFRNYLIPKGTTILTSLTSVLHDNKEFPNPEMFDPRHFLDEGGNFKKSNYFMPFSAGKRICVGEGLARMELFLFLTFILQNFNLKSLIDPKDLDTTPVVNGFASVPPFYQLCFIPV
Receptor tyrosine-protein kinase erbB-4, sequence (Q15303 whole entry): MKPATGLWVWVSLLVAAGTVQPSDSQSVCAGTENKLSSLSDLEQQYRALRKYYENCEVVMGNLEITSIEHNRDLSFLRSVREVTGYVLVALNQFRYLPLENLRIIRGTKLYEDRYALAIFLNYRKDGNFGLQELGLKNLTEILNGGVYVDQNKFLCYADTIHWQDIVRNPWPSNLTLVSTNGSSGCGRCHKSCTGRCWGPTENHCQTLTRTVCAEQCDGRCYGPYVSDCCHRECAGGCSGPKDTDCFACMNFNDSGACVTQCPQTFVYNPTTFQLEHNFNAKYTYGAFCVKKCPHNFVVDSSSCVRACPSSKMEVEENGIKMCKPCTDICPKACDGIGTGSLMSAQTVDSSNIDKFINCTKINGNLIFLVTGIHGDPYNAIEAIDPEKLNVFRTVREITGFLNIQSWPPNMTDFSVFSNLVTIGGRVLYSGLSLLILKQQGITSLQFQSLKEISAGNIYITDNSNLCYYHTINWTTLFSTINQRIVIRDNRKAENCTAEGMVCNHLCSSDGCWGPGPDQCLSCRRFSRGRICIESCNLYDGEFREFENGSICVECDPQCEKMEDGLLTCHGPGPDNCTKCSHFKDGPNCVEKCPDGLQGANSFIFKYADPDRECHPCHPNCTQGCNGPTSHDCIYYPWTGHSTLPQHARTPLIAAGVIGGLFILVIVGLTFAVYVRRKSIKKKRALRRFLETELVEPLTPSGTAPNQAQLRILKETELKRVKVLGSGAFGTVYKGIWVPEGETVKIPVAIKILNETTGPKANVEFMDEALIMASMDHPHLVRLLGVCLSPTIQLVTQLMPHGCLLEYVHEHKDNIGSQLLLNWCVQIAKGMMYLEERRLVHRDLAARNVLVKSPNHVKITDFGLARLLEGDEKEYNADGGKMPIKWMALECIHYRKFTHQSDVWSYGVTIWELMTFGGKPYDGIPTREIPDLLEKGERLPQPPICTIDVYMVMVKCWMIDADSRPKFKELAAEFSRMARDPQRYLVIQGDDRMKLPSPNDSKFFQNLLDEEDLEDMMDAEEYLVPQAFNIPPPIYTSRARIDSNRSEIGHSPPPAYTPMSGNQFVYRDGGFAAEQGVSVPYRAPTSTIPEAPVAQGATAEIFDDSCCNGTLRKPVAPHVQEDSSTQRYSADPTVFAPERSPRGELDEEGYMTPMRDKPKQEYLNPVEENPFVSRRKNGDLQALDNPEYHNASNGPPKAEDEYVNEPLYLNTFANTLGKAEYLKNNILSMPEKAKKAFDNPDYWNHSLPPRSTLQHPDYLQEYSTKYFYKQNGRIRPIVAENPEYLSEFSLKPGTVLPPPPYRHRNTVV
Tyrosine-protein kinase ITK/TSK, sequence (Q08881 whole entry): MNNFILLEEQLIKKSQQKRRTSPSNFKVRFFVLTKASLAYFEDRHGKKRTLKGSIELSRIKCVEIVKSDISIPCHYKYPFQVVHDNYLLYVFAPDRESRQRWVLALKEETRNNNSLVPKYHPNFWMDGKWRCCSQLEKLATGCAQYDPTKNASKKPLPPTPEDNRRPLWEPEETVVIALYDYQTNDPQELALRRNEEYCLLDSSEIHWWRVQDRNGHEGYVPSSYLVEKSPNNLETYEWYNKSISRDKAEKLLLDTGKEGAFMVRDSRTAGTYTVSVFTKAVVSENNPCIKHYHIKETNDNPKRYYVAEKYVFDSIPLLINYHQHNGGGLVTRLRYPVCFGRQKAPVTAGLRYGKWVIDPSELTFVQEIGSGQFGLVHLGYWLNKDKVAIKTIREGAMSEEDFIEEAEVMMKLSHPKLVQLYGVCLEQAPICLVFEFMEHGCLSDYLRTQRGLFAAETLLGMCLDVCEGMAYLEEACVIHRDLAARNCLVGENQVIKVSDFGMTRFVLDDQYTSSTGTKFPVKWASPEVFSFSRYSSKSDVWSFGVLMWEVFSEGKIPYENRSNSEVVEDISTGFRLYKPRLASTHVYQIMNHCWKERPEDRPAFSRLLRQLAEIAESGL
Epidermal growth factor receptor, sequence (P00533 25-1210 T790M limits assumed): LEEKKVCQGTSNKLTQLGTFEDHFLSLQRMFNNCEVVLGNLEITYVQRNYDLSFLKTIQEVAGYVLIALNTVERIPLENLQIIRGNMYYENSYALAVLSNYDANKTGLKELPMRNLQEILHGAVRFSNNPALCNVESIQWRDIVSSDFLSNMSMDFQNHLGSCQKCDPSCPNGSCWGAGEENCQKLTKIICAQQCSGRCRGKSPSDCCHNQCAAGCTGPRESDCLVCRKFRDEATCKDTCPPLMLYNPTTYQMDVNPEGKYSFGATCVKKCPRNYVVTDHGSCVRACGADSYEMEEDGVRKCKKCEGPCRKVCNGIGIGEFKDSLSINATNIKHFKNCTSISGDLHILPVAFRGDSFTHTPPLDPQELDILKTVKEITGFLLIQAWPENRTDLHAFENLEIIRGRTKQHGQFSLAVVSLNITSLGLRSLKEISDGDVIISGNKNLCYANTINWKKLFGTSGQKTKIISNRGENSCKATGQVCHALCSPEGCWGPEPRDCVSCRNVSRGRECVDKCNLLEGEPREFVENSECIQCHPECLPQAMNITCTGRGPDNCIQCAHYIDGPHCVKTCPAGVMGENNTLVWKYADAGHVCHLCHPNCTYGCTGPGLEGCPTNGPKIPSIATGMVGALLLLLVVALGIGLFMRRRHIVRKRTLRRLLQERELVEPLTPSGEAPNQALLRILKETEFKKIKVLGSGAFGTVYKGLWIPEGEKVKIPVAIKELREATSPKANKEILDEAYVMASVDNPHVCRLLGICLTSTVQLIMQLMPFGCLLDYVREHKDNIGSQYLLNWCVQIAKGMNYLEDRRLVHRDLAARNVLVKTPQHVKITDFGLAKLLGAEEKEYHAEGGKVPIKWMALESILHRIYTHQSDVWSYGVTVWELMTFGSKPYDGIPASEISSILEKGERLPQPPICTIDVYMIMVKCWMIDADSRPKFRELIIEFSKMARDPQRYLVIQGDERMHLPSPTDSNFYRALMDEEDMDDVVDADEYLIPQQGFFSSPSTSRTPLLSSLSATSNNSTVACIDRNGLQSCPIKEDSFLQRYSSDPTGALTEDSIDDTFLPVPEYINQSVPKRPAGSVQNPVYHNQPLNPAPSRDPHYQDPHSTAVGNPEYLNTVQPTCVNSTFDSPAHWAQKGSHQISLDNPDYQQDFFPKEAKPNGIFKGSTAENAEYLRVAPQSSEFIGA

## C=CS(=O)(=O)N1CCC[C@@H](Nc2nc(N)nc(Nc3cccc(Oc4ccccc4)c3)n2)C1
[1]
  pIC50: 4.98
[2]
  IC50 at 72 h: 21.2 µM
[3]
  Activity: Dose-dependent-effect
[4]
  Activity: Active
[5]
  pIC50: 6.75
[6]
  Activity: Non-toxic
[7]
  Activity: Dose-dependent-effect
[8]
  Activity: inactive
[9]
  Activity: Dose-dependent-effect
[10]
  bioavailability: 6.6%
[11]
  pIC50: < 6.00
[12]
  pIC50: 5.30
[13]
  pIC50: 4.87
[14]
  inhibition: Active
[15]
  inhibition: Active
[16]
  pIC50: 4.80
[17]
  Activity: Dose-dependent-effect
[18]
  Activity: Time-dependent-effect
[19]
  Activity: Active
[20]
  Activity: Active
[21]
  pIC50: 4.63
[22]
  Activity: Active
[23]
  Activity: Non-toxic
[24]
  Activity: Non-toxic
[25]
  inhibition: Active
[26]
  pIC50: 4.76
[27]
  pIC50: 5.02
[28]
  Activity: Dose-dependent-effect
[29]
  Activity: Dose-dependent-effect
[30]
  pIC50: < 6.00
[31]
  pIC50: 4.82
[32]
  IC50 at 72 h: > 32 µM
[33]
  pIC50: < 4.00
[34]
  pIC50: 5.24
[35]
  Activity: Dose-dependent-effect
[36]
  Activity: Dose-dependent-effect
[37]
  Activity: Dose-dependent-effect
[38]
  inhibition: Active
[39]
  IC50 at 72 h: > 32 µM
[40]
  pIC50: 6.36
[41]
  pIC50: 4.78
